Results: PubChem BioAssay AID2060337 (Molecular Pharmacology Branch, DTP, NCI, 2025)
Values joined by “and” are separate entries in the source; they are usually repeats but may differ in a detail not shown here. Equal entries are not always repeated.

Tested on: 832693-133-R-J1-PDC multi-cell spheroids, viability
Assay: Anticancer human tumor 832693-133-R-J1-PDC patient-derived head and neck squamous carcinoma cell line growth inhibition [IpAb]
Details: for viability, T/C: stronger effect = lower value; active = viability on the fitted dose curve at most 10% of control; inactive = the rest
Summary of the method: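 Spheroids of 60% malignant cells, 25% HUVEC and 15% MSC were exposed to targeted agents combined with ipatasertib or abemaciclib. Doses started at or near clinical Cmax (10 microM when unknown) and fell in half-log steps.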

[1] = curve of first compound, second compound 0.01 µM
[2] = curve of first compound, second compound 0.0316 µM
[3] = curve of first compound, second compound 0.1 µM
[4] = curve of first compound, second compound 0.316 µM
[5] = curve of first compound, second compound 1 µM
[6] = second compound 0.01 µM, first compound 0.0316 µM
[7] = second compound 0.01 µM, first compound 0.1 µM
[8] = second compound 0.0316 µM, first compound 0.0316 µM
[9] = second compound 0.0316 µM, first compound 0.1 µM
[10] = second compound 0.1 µM, first compound 0.0316 µM
[11] = second compound 0.1 µM, first compound 0.1 µM
[12] = second compound 0.1 µM, first compound 0.316 µM
[13] = second compound 0.1 µM, first compound 1 µM
[14] = second compound 0.1 µM, first compound 3.16 µM
[15] = second compound 0.1 µM, first compound 10 µM
[16] = second compound 0.316 µM, first compound 0.0316 µM
[17] = second compound 0.316 µM, first compound 0.1 µM
[18] = second compound 0.316 µM, first compound 0.316 µM
[19] = second compound 0.316 µM, first compound 1 µM
[20] = second compound 0.316 µM, first compound 3.16 µM
[21] = second compound 0.316 µM, first compound 10 µM
[22] = second compound 1 µM, first compound 0.0316 µM
[23] = second compound 1 µM, first compound 0.1 µM
[24] = second compound 1 µM, first compound 0.316 µM
[25] = second compound 1 µM, first compound 1 µM
[26] = second compound 1 µM, first compound 3.16 µM
[27] = second compound 1 µM, first compound 10 µM
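Also: spheroids exposed to the drugs for one week before the viability readout.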
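For viability, T/C in this document: 100% = DMSO vehicle control wells.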

Cn1nccc1Nc1nccc(-c2ccn(C(CO)c3ccc(Cl)c(F)c3)c(=O)c2)n1 (centres undefined) + CCN1CCN(Cc2ccc(Nc3ncc(F)c(-c4cc(F)c5nc(C)n(C(C)C)c5c4)n3)nc2)CC1
inactive: viability, T/C [6] 87.8% | viability, T/C [7] 83.6% | viability, T/C (second compound 0.01 µM, first compound 0.316 µM) 67.6% | viability, T/C (second compound 0.01 µM, first compound 1 µM) 55.9% | viability, T/C (second compound 0.01 µM, first compound 3.16 µM) 31.9% | viability, T/C (second compound 0.01 µM, first compound 10 µM) 30.3% | viability, T/C [8] 78% | viability, T/C [9] 68.1% | viability, T/C (second compound 0.0316 µM, first compound 0.316 µM) 61.2% | viability, T/C (second compound 0.0316 µM, first compound 1 µM) 52.7% | viability, T/C (second compound 0.0316 µM, first compound 3.16 µM) 31% | viability, T/C (second compound 0.0316 µM, first compound 10 µM) 34.2% | viability, T/C [10] 70.7% | viability, T/C [11] 59.5% | viability, T/C [12] 53.7% | viability, T/C [13] 47.2% | viability, T/C [14] 27.1% | viability, T/C [15] 32.3% | viability, T/C [16] 68.7% | viability, T/C [17] 59.5% | viability, T/C [18] 53.3% | viability, T/C [19] 50.5% | viability, T/C [20] 36.8% | viability, T/C [21] 31.9% | viability, T/C [22] 74.9% | viability, T/C [23] 82.7% | viability, T/C [24] 63.6% | viability, T/C [25] 62.7% | viability, T/C [26] 57.8% | viability, T/C [27] 43.2%
5370 nM: IC50 [5]
852 nM: IC50 [2]
444 nM: IC50 [3]
1140 nM: IC50 [1]
617 nM: IC50 [4]

Cc1nc(NC(=O)N2CCCC2C(N)=O)sc1-c1ccnc(C(C)(C)C(F)(F)F)c1 (centres undefined) + CC(C)NCC(C(=O)N1CCN(c2ncnc3c2C(C)CC3O)CC1)c1ccc(Cl)cc1
45 nM: IC50 (curve of first compound, second compound 10 µM)
< 31.6 nM: IC50 (curve of first compound, second compound 3.16 µM)
260 nM: IC50 [4]
inactive: viability, T/C [10] 90.3% | viability, T/C [11] 78.8% | viability, T/C [12] 51.3% | viability, T/C [13] 41% | viability, T/C [14] 14.1% | viability, T/C [16] 77.8% | viability, T/C [17] 64.2% | viability, T/C [18] 49% | viability, T/C [19] 23.8% | viability, T/C [20] 12.8% | viability, T/C [22] 52.2% | viability, T/C [23] 41.5% | viability, T/C [24] 26.8% | viability, T/C [25] 16% | viability, T/C (second compound 3.16 µM, first compound 0.0316 µM) 46% | viability, T/C (second compound 3.16 µM, first compound 0.1 µM) 32.8% | viability, T/C (second compound 3.16 µM, first compound 0.316 µM) 24.4% | viability, T/C (second compound 3.16 µM, first compound 1 µM) 16.3% | viability, T/C (second compound 10 µM, first compound 0.0316 µM) 55.6% | viability, T/C (second compound 10 µM, first compound 0.1 µM) 38.4% | viability, T/C (second compound 10 µM, first compound 0.316 µM) 28.6% | viability, T/C (second compound 10 µM, first compound 1 µM) 19.1% | viability, T/C (second compound 10 µM, first compound 3.16 µM) 13.3%
452 nM: IC50 [3]
active: viability, T/C [15] 4.68% | viability, T/C [21] 3.31% | viability, T/C [26] 9.89% | viability, T/C [27] 2.93% | viability, T/C (second compound 3.16 µM, first compound 3.16 µM) 10.7% | viability, T/C (second compound 3.16 µM, first compound 10 µM) 3.55% | viability, T/C (second compound 10 µM, first compound 10 µM) 3.58%
40.9 nM: IC50 [5]

CC(C)n1nc(-c2ccc3oc(N)nc3c2)c2c(N)ncnc21 + CCN1CCN(Cc2ccc(Nc3ncc(F)c(-c4cc(F)c5nc(C)n(C(C)C)c5c4)n3)nc2)CC1
36.3 nM: IC50 [2]
10.6 nM: IC50 [3]
inactive: viability, T/C (second compound 0.01 µM, first compound 0.000316 µM) 83% | viability, T/C (second compound 0.01 µM, first compound 0.001 µM) 82.8% | viability, T/C (second compound 0.01 µM, first compound 0.00316 µM) 73.5% | viability, T/C (second compound 0.01 µM, first compound 0.01 µM) 77.8% | viability, T/C [6] 50.6% | viability, T/C [7] 53.2% | viability, T/C (second compound 0.0316 µM, first compound 0.000316 µM) 71.8% | viability, T/C (second compound 0.0316 µM, first compound 0.001 µM) 73.6% | viability, T/C (second compound 0.0316 µM, first compound 0.00316 µM) 64% | viability, T/C (second compound 0.0316 µM, first compound 0.01 µM) 61% | viability, T/C [8] 52.4% | viability, T/C [9] 38.4% | viability, T/C (second compound 0.1 µM, first compound 0.000316 µM) 61% | viability, T/C (second compound 0.1 µM, first compound 0.001 µM) 56% | viability, T/C (second compound 0.1 µM, first compound 0.00316 µM) 52.7% | viability, T/C (second compound 0.1 µM, first compound 0.01 µM) 53% | viability, T/C [10] 43% | viability, T/C [11] 34.5% | viability, T/C (second compound 0.316 µM, first compound 0.000316 µM) 50.6% | viability, T/C (second compound 0.316 µM, first compound 0.001 µM) 55.7% | viability, T/C (second compound 0.316 µM, first compound 0.00316 µM) 49% | viability, T/C (second compound 0.316 µM, first compound 0.01 µM) 42.3% | viability, T/C [16] 42.9% | viability, T/C [17] 34.8% | viability, T/C (second compound 1 µM, first compound 0.000316 µM) 59.5% | viability, T/C (second compound 1 µM, first compound 0.001 µM) 50.3% | viability, T/C (second compound 1 µM, first compound 0.00316 µM) 41.6% | viability, T/C (second compound 1 µM, first compound 0.01 µM) 38.2% | viability, T/C [22] 39.8% | viability, T/C [23] 38.6%
> 100 nM: IC50 [1]
2.03 nM: IC50 [4]
0.859 nM: IC50 [5]

Cn1ncnc1[C@H]1c2n[nH]c(=O)c3cc(F)cc(c23)N[C@@H]1c1ccc(F)cc1
inactive: viability, T/C (compound 0.000316 µM) 110% and 111% | viability, T/C (compound 0.001 µM) 97.9% and 109% | viability, T/C (compound 0.00316 µM) 98.3% and 96.9% | viability, T/C (compound 0.01 µM) 86.5% and 107% | viability, T/C (compound 0.0316 µM) 95.6% and 93.8% | viability, T/C (compound 0.1 µM) 86.1% and 84.1%
> 100 nM: IC50 (curve of compound)

CC(=O)c1c(C)c2cnc(Nc3ccc(N4CCNCC4)cn3)nc2n(C2CCCC2)c1=O + CCN1CCN(Cc2ccc(Nc3ncc(F)c(-c4cc(F)c5nc(C)n(C(C)C)c5c4)n3)nc2)CC1
> 300 nM: IC50 [1] | IC50 [2] | IC50 [3] | IC50 [4] | IC50 [5]
inactive: viability, T/C (second compound 0.01 µM, first compound 0.000949 µM) 101% | viability, T/C (second compound 0.01 µM, first compound 0.003 µM) 83.8% | viability, T/C (second compound 0.01 µM, first compound 0.00949 µM) 75.6% | viability, T/C (second compound 0.01 µM, first compound 0.03 µM) 71.8% | viability, T/C (second compound 0.01 µM, first compound 0.0949 µM) 58.4% | viability, T/C (second compound 0.01 µM, first compound 0.3 µM) 60% | viability, T/C (second compound 0.0316 µM, first compound 0.000949 µM) 80.1% | viability, T/C (second compound 0.0316 µM, first compound 0.003 µM) 83.4% | viability, T/C (second compound 0.0316 µM, first compound 0.00949 µM) 71.1% | viability, T/C (second compound 0.0316 µM, first compound 0.03 µM) 58.4% | viability, T/C (second compound 0.0316 µM, first compound 0.0949 µM) 56.7% | viability, T/C (second compound 0.0316 µM, first compound 0.3 µM) 54.1% | viability, T/C (second compound 0.1 µM, first compound 0.000949 µM) 57.1% | viability, T/C (second compound 0.1 µM, first compound 0.003 µM) 62.2% | viability, T/C (second compound 0.1 µM, first compound 0.00949 µM) 61.4% | viability, T/C (second compound 0.1 µM, first compound 0.03 µM) 52.4% | viability, T/C (second compound 0.1 µM, first compound 0.0949 µM) 54.3% | viability, T/C (second compound 0.1 µM, first compound 0.3 µM) 56% | viability, T/C (second compound 0.316 µM, first compound 0.000949 µM) 54% | viability, T/C (second compound 0.316 µM, first compound 0.003 µM) 53.3% | viability, T/C (second compound 0.316 µM, first compound 0.00949 µM) 55.3% | viability, T/C (second compound 0.316 µM, first compound 0.03 µM) 61.4% | viability, T/C (second compound 0.316 µM, first compound 0.0949 µM) 55.2% | viability, T/C (second compound 0.316 µM, first compound 0.3 µM) 60.4% | viability, T/C (second compound 1 µM, first compound 0.000949 µM) 67.8% | viability, T/C (second compound 1 µM, first compound 0.003 µM) 61% | viability, T/C (second compound 1 µM, first compound 0.00949 µM) 68.3% | viability, T/C (second compound 1 µM, first compound 0.03 µM) 64.8% | viability, T/C (second compound 1 µM, first compound 0.0949 µM) 65.6% | viability, T/C (second compound 1 µM, first compound 0.3 µM) 57.2%

Cn1ncc(Cl)c1-c1cc(C(=O)NC(CN)Cc2cccc(F)c2)sc1Cl (centres undefined)
active: viability, T/C (compound 10 µM) 0.3% and 0.39%
5060 nM and 5130 nM: IC50 (curve of compound)
inactive: viability, T/C (compound 0.0316 µM) 99.5% and 99.8% | viability, T/C (compound 0.1 µM) 89.4% and 102% | viability, T/C (compound 0.316 µM) 74.4% and 79.5% | viability, T/C (compound 1 µM) 73.6% and 68.3% | viability, T/C (compound 3.16 µM) 85% and 86%
